Article PMC12040169 (PLOS Biology, 2025)

Experiment: in vitro
Details: human, hela cells, % viability

| SMILES | viability at 28.5 h, 10 µM [%] |
| --- | --- |
| Cc1cc(C(F)(F)F)n(CC(C)CNC(=O)Cc2csc(C)n2)n1 (centres unmarked) [CBK306733] | 87.8 |
| O=C(O)c1cccc(NS(=O)(=O)c2cccs2)c1 [CBK270068] | 59.5 |
| COc1ccc(C=C2CCCC3C2=NN(C(=O)CCC(=O)O)C3c2ccc(OC)c(OC)c2)cc1OC (centres unmarked) [CBK296070] | 107 |
| O=S(=O)(Nc1ccc(Cl)c(Cl)c1)c1ccc(Cl)c(Cl)c1 [CBK044838] | 86.8 |
| CCCC(=O)N1CCCCC1c1c(-c2onc(C)c2C)cnn1C (centres unmarked) [CBK282259] | 94.7 |
| O=C(Nc1cccc(F)c1)N(CCO)Cc1cccnc1 [CBK304860] | 104 |
| Cc1c(C(c2ccc3ccccc3c2)c2c(C)n(C)n(-c3ccccc3)c2=O)c(=O)n(-c2ccccc2)n1C [CBK261692] | 95.9 |
| O=C(Nc1cccc(-c2noc(-c3ccccn3)n2)c1)c1cccs1 [CBK270283] | 88.9 |
| c1ccc2nc(N3CCCC3)c(OC3CCOC3)nc2c1 (centres unmarked) [CBK115769] | 99.4 |
| O=C(NCC1CCCO1)c1ccc(CNS(=O)(=O)c2cccc(Cl)c2)cc1 (centres unmarked) [CBK267219] | 88.6 |
| CNc1ccc(C(O)(C(F)(F)F)C(F)(F)F)cc1C(O)(C(F)(F)F)C(F)(F)F [CBK268070] | 96.6 |
| Cc1nnsc1C(=O)Nc1ncn(CC(=O)N2CCCCCC2)n1 [CBK305522] | 96.9 |
| COC(=O)c1cc(C#N)c(=O)n(CC(O)COc2c(C)cccc2C)c1 (centres unmarked) [CBK305709] | 97.2 |
| C=CCOc1ccc(CN(C)Cc2nc3cc(C(=O)O)ccc3c(=O)[nH]2)cc1 [CBK295156] | 101 |
| CCCNc1nc(O)cc(C(F)(F)F)n1 [CBK000214] | 95.8 |
| COc1ccnc(N2CCCN(CC(N)=O)CC2)n1 [CBK083992] | 87.2 |
| O=C(CC1CCN(C(=O)Cc2ccccc2)CC1)Nc1nc2c(s1)CCCCC2 [CBK286001] | 90.3 |
| Cc1noc(C)c1S(=O)(=O)N1CCOCC1c1cccc(F)c1 (centres unmarked) [CBK304171] | 109 |
| CC1CCCCN1Cc1nc2c(c(=O)n(C)c(=O)n2C)n1Cc1ccccc1 (centres unmarked) [CBK269203] | 105 |
| COc1ccc(C2NCCS2)cc1Br (centres unmarked) [CBK021053] | 104 |
| O=C(NCCCN1CCOCC1)C1CCCN1S(=O)(=O)c1ccc(Cl)cc1 (centres unmarked) [CBK269944] | 92.1 |
| NS(=O)(=O)c1ccc(CNC(=O)C2(c3ccccc3)CCCC2)cc1 [CBK161523] | 101 |
| COc1ccc(C(=O)Nc2cncc(OC3CCNCC3)n2)cc1 [CBK036370T] | 94.4 |

| SMILES | viability at 28.5 h, 10 µM [%] |
| --- | --- |
| CN1CCC[C@H]1C(=O)N1CCC(Cn2cncn2)(C2CCCCC2)CC1 [CBK136818] | 101 |
| O=C(O)c1cc(S(=O)(=O)Nc2ccc3cc(Br)cnc3n2)c(F)cc1Cl [CBK073898] | 92.2 |
| C[C@@H](Nc1nc(-c2cccc(-c3ccccc3)c2)cnc1N)c1ccccc1 [CBK063704] | 96.3 |
| O=S(=O)(NCCN1CCOCC1)c1cc(Cl)ccc1Cl [CBK261757] | 85.1 |
| COc1ccc(C(=O)N2CCC(Cc3ccccc3)CC2)cc1 [CBK074337] | 95.8 |
| Cc1noc(C)c1C(=O)N(C)CC(=O)Nc1ccc(Cl)c(C(F)(F)F)c1 [CBK295363] | 95.7 |
| CN(CCCC(=O)Nc1nnc[nH]1)S(=O)(=O)c1ccccc1 [CBK267380] | 82.4 |
| Fc1cccc(-c2nc3cnccn3c2NCc2ccco2)c1 [CBK282323] | 93.5 |
| Cn1c(SCC(=O)c2ccc(Cl)cc2)nnc1-c1cnccc1C(F)(F)F [CBK067698] | 110 |
| CCOC(=O)CCc1nc2ccccc2nc1O [CBK264526] | 106 |
| C=CCn1ncc(CN(CCN(C)C)Cc2ccc(C)o2)c1C [CBK282846] | 81.3 |
| O=C(O)c1cccn1-c1cc(Cl)cc(Cl)c1 [CBK286932] | 98.8 |
| COc1ccc(C23CCCN(C)C2C[C@@H](O)CC3)cc1OC (some centres unmarked) [CBK016226C] | 94.1 |
| O=C1CC(C(=O)N2CCc3ncc(Cl)cc3C2)c2ccccc2N1 (centres unmarked) [CBK284976] | 94.4 |
| CN(C)CCN1C(=O)C(O)=C(C(=O)c2ccco2)C1c1ccc([N+](=O)[O-])cc1 (centres unmarked) [CBK264486] | 109 |
| CC(=O)NCC1OCCc2ccccc21 (centres unmarked) [CBK026449] | 98.4 |
| COc1ccc2sc(N(Cc3cccnc3)C(=O)CCc3ccccc3)nc2c1 [CBK294423] | 81.2 |
| COc1ccc(/C(C)=N/NC(=O)CSCc2cccc(Br)c2)cc1 [CBK261205] | 81.4 |
| COc1cccc(C2C(C(=O)c3ccc(Cl)cc3)=C(O)C(=O)N2CCN2CCOCC2)c1 (centres unmarked) [CBK264901] | 90 |
| O=C(CNC(=O)C1CCCCC1)NNC(=O)c1ccccc1Br [CBK267828] | 102 |
| CCOc1cccc2cc(-c3cc(=O)oc4cc(C)c(O)cc34)oc12 [CBK300517] | 95.9 |
| O=C(CN1CCOCC1)Nc1ccc(Br)cc1[N+](=O)[O-] [CBK267314] | 96.9 |
| Cc1cc2cc3c(nc2cc1C)OCCNC3 [CBK281939] | 97.1 |

| SMILES | viability at 28.5 h, 10 µM [%] |
| --- | --- |
| CN(C)[C@@H]1CN(Cc2cccnc2)C[C@H]1c1cn(C)c2ccccc12 [CBK284875] | 110 |
| CC(C)(c1ccc(OC(=O)c2ccc(N)cc2)cc1)c1ccc(OC(=O)c2ccc(N)cc2)cc1 [CBK260962] | 91.2 |
| Cc1nn(C(C)CC(=O)NCCN2CCc3ccccc32)c(C)c1C (centres unmarked) [CBK282675] | 87.1 |
| Cn1ccnc1C1(O)CCN(C(=O)Nc2ccc(F)cc2)CC1 [CBK282277] | 97.4 |
| Cn1nc(-c2ccc(S(=O)(=O)Nc3ccc4cn[nH]c4c3)s2)cc1C(F)(F)F [CBK067156] | 92.8 |
| O=C(CN1CCCC1)Nc1sc2c(c1C(=O)Nc1ccc(Br)cc1)CCC2 [CBK265060] | 94.8 |
| COc1ccc(NC(=O)CSc2nnc(C3CC3)n2C)c(OC)c1 [CBK270303] | 81.9 |
| O=C(CS(=O)(=O)c1ccccc1)Nc1cccc2nsnc12 [CBK267949] | 97.4 |
| CC(=O)NCC1CCC(C(NC(=O)C2CC2)c2ccccn2)CC1 (centres unmarked) [CBK283000] | 87.5 |
| COC(=O)c1c(NS(=O)(=O)c2cccc(Cl)c2)csc1C [CBK026678] | 79.6 |
| COc1ccc(-c2ccc(OC3CCNCC3)cc2)c(OC)c1 [CBK093816T] | 91.2 |
| O=C(Nc1ccccn1)NC1CCS(=O)(=O)C1 (centres unmarked) [CBK021330] | 99.9 |
| COc1nc2ccccc2nc1CCC(=O)NCc1ccco1 [CBK269866] | 93.4 |
| CC(C)C[C@H]([C@@H]1C[C@@H](C(C)C)C(=O)O1)N1C(=O)c2ccccc2C1=O [CBK011526] | 93.9 |
| COc1cc(CNc2cncc(-c3cccc(NC(C)=O)c3)n2)cc(OC)c1OC [CBK066133] | 100 |
| Cc1cc(N2C(=O)c3oc4ccccc4c(=O)c3C2c2ccncc2)no1 (centres unmarked) [CBK287780] | 103 |
| O=C(O)CCSc1nnc(-c2cccnc2)n1-c1ccccc1 [CBK268734] | 102 |
| Cn1ccnc1SCC(=O)Nc1ccc(S(N)(=O)=O)cc1 [CBK263190] | 84.6 |
| O=C(C1=C(O)C(=O)N(CCN2CCOCC2)C1c1ccccn1)c1cccs1 (centres unmarked) [CBK266508] | 99.3 |
| CC(C)c1nc(CC(=O)NCCS(=O)(=O)N2CCc3ccccc32)cs1 [CBK305630] | 84.5 |
| COc1cccc2c3c([nH]c12)C1(CCN(CCc2scnc2C)CC1)NCC3 [CBK040058] | 89 |
| CCOC(=O)C1CCN(C(=O)CCn2ccc3ccncc32)CC1 [CBK284720] | 84.2 |
| NC(=O)c1cc(Cc2ccccc2)sc1NC(=O)c1cccnc1 [CBK268168] | 96.2 |

| SMILES | viability at 28.5 h, 10 µM [%] |
| --- | --- |
| Cc1occc1C(=O)NC(C)c1ccc2c(c1)OCO2 (centres unmarked) [CBK268153] | 105 |
| O=C(C1CC=CCC1)N1CCCC(c2[nH]ncc2-c2ccncc2)C1 (centres unmarked) [CBK284198] | 93.2 |
| Cc1cccc(CCNC(=O)N2CCC(Cc3cnn(C)c3)C2)c1 (centres unmarked) [CBK305137] | 110 |
| Cc1cc(C(=O)CN(C)S(=O)(=O)c2ccc(Cl)c(Cl)c2)c(C)n1C [CBK295661] | 102 |
| COc1cccc(CN2CCN(C(=O)c3ccco3)[C@@H](C)C2)c1 [CBK284267] | 110 |
| COc1ccccc1C(=O)Nc1sc2c(c1C#N)CC(C)(C)NC2(C)C [CBK307233] | 99.9 |
| CC1CC(C)CN(C2CCN(Cc3ccccn3)CC2)C1 (centres unmarked) [CBK264639G] | 99.4 |
| CC(=O)[C@H]1C[C@@H](CC(=O)NCc2csc(-c3ccccc3)n2)C1(C)C [CBK092335] | 109 |
| O=C(C1C2CCCCC21)N1CCC(Oc2cccc(F)c2)CC1 (centres unmarked) [CBK282216] | 106 |
| O=C(O)CC(C(=O)O)c1ccc(Cl)cc1Cl (centres unmarked) [CBK268523] | 95.5 |
| COc1ccc2cc(COC(=O)c3ccc([S+](C)[O-])cc3)c(Cl)nc2c1 (centres unmarked) [CBK298267] | 99.5 |
| FC(F)(F)c1cccc(OCCN2CCOCC2)n1 [CBK113289] | 105 |
| Nc1ncc(-c2cc(C(F)(F)F)cc(C(F)(F)F)c2)nc1NCc1ccco1 [CBK063689] | 91.6 |
| CCC(C(=O)Nc1nccs1)N(C)Cc1n[nH]c2c1CCC2 (centres unmarked) [CBK307685] | 99 |
| Cc1ccc(OCC(=O)NNC(=O)C2COc3ccccc3O2)cc1 (centres unmarked) [CBK263511] | 95.4 |
| COc1ccc(-c2c(-c3ccc(O)cc3O)n[nH]c2C)cc1OC [CBK265552] | 81.7 |
| CC(C)N1CC[C@@H]2[C@H]1C(=O)NC[C@H](CCC(=O)NCc1ccccc1)N2C [CBK289027] | 91.7 |
| Cn1ccc(C(=O)N2CCC[C@H](C(=O)c3ccc(F)cc3)C2)n1 [CBK284333] | 88.3 |
| O=C(O)c1ccc(-n2nnnc2Sc2nc([N+](=O)[O-])nn2Cc2ccccc2F)cc1 [CBK268498] | 91.5 |
| CC(C(=O)O)N(c1ccc(Cl)cc1)S(C)(=O)=O (centres unmarked) [CBK267945] | 111 |
